What all share (format): cell-based, human
The subject of one test is p38 MAP kinase. In words: Phosphorylation of p38 MAP kinase in PMA-treated THP-1 cells, Western blotting. The conditions noted are these: DDR1b-overexpressing cells treated before PMA-treatment. The protocol: Parental, mock, DDR1a- or DDR1b-overexpressing THP-1 cells were plated at 5×10^6/ml on uncoated tissue culture plates and stimulated with PMA (10 nM) for 24 hours, and then starved in RMPI 1640 without FCS for 10 hours. Subsequently cells were washed three times with PBS, and then incubated in the presence of 50 μg/ml collagen type I for various times.
Ten million cells were lysed on ice for 20 minutes in a buffer containing 50 mM NaCl, 20 mM Tris-HCl, 50 mM sodium fluoride, 30 mM Na4P2O7, 5 mM EGTA, 3 mM sodium orthovanadate, 1% Triton X-100, 1 mg/ml leupeptin, 1 mM PMSF, 1 mg/ml aprotinin, 1 mg/ml pepstatinA and 100 μM sodium orthovanadate treated with H2O2. A lysis buffer containing 150 mM NaCl, 50 mM HEPES, 1% Triton-X 10% glycerol, 1 mM sodium fluoride, 1 mM EDTA, 2 mM sodium orthovanadate, 1 mg/ml leupeptin, 1 mM PMSF, 1 mg/ml aprotinin, 1 mg/ml pepstatinA and 100 μM sodium orthovanadate treated with H2O2, was also used for immunoprecipitation with anti-Shc Ab. The lysates were spun in a microcentrifuge for 20 minutes and the supernatants were collected. […]
Eluted proteins were analyzed on 8% polyacrylamide gels by SDS-PAGE and transferred electrophoretically to nitrocellulose membranes at 150 mA for 1 hour by a semi-dry system. […] To detect phosphorylated or nonphosphorylated p38 MAP kinase or ATF-2, 20 μl of cell lysates were directly mixed with 20 μl of sample buffer and then analyzed.
Downstream signaling molecules that may play a role in the up-regulation of HLA-DR in collagen-activated PMA-treated DDR1b-overexpressing cells were identified in the following manner. […] Phosphorylation of p38 MAP kinase was first detected 30 minutes after collagen activation of DDR1b-overexpressing cells and the level of phosphorylation increased thereafter. […] Phosphorylation of p38 MAP kinase was not detected in DDR1a-overexpressing cells up to 120 minutes. […] Phosphorylation of other members of the MAP kinase family, ERK1, ERK2, and JNK could not be detected in collagen-activated PMA-treated DDR1b-overexpressing cells. […]

Test [1] relates to THP-1 cells. In words: Flow cytometry of HLA-DR, CD11c, CD14, CD40 on PMA-treated THP-1 cells. The protocol:
FIG. 5 is a graph showing the effects of collagen-activation of two DDR1 isoforms on the expression of CD11c, CD14, and CD40. Each cell line was plated at 5×10^6 cells/ml on either uncoated or collagen-coated plates and incubated at 37° C. for 24 hours in the presence of 10 nM PMA. Anti-1β integrin antibody (10 μg/ml) was used to block the effect of 1β integrin-collagen interaction. The percentage of CD11c, CD14, or CD40-positive cells is shown. Data are presented as the mean ±SD from three independent experiments.
Parental, mock, DDR1a-overexpressing, or DDR1b overexpressing THP-1 cells were plated at 5×10^6 cells/ml on either uncoated or collagen-coated plates and incubated at 37° C. for 24 or 48 hours in the presence of 10 nM PMA. One hundred thousand cells were suspended in 50 μl of cold PBS containing 0.1% NaN3, […] BSA and 200 μg/ml human IgG in a Falcon 2052 tube, and incubated for 10 minutes on ice. One μg of mouse monoclonal antibody against CD11c, CD14 CD40, or HLA-DR, or control mouse IgG were added to each tube and the cells were incubated for another 15 minutes on ice. The cells were washed with PBS, and then incubated with 1 μg of FITC-conjugated goat anti-mouse IgG for 15 minutes on ice. At the end of incubation, propidium iodide (PI) (100 μM) was added to each tube. The cells were washed by PBS, and subsequently analyzed by using a FACS scan (Becton Dickinson). Dead cells, determined by the incorporation of PI, were gated out. Results were processed by using the Cellquest software (Becton Dickinson).
The cells were then rinsed three times with RPMI 1640 containing 10% FCS, and incubated either with the p38 MAP kinase inhibitor SB203580, the MEK (MAP or ERK kinase) ½ inhibitor PD98059, or dimethylsulfoxide (DMSO) for 30 minutes, followed by an additional 12 hour incubation in the presence of 10 nM PMA plus collagen. The expression of HLA-DR was analyzed by flow cytometry.

Test [2] deals with THP-1 cells. In words: Cytokine and chemokine release from PMA-treated THP-1 cells by ELISA. The conditions noted are these: DDR1b-overexpressing THP-1 cells, PMA, collagen-coated plates, 48 hours. The protocol: The production of DDR1a- or 1b-overexpressing THP-1 cells was previously described (Kamohara et al., FASEB J. 15:2724, 2001). Briefly, the human monocytic leukemic cell line, THP-1, was transduced with control retrovirus containing the vector only (mock-transduced) or retrovirus expressing DDR1a or DDR1b. THP-1 cells transduced by each virus were selected with G418, and cloned by limiting dilution. The cloned THP-1 cells were maintained in RPMI 1640 medium supplemented with 100 μg/ml gentamycin and 10% FCS (complete medium). Cells were plated at 1×10^6/ml and treated with PMA (10 nM) for variable times on uncoated or collagen-coated tissue culture plates for quantification of cytokine or chemokine release.
In addition, the concentration of MCP-1 in the culture supernatant of each cell line was measured by ELISA. The concentration of MCP-1 was measured in the Lymphokine Testing Laboratory, Clinical Services Program, SAIC-Frederick (Frederick, Md.) by using an enzyme-linked immunosorbent assay (ELISA) kit (R&D Systems, Minneapolis, Minn.) specific for the chemokine.
In addition, the concentrations of IL-1β, IL-8, and MIP-1α in the culture supernatants of each cell line were quantified by ELISA (FIG. 6). The concentration of IL-1β, IL-8, and MIP-1α were measured in the Lymphokine Testing Laboratory, Clinical Services Program, SAIC-Frederick (Frederick, Md.) by using enzyme-linked immunosorbent assay (ELISA) kits (R&D Systems, Minneapolis, Minn.) specific for each human cytokine and chemokine. […]

In the next test the test system is DDR1 mRNA. The experiment in a line: DDR1 mRNA expression in PBMC by Northern blotting. The conditions noted are these: 8 hours, TNF-α 5 ng/ml, IL-1β 10 ng/ml, IFN-γ 50 U/ml, GM-CSF 10 ng/ml, LPS 1 μg/ml, PHA 5 μg/ml. As for the experimental part: PMN and PBMC were maintained at a density of 5×10^6 cells/ml in the complete medium in six-well tissue culture cluster (Coster, Cambridge, Mass.; 3 ml/well). Total RNA was extracted from each culture by using TRIZOL® Reagent. PolyA mRNA was purified on Oligotex columns (Qiagen, Valencia, Calif.). Northern blot analysis was performed as described (Yoshimura, J. Immunol. 150:5025, 1993), except that ULTRAhyb (Ambion) was used. A human DDR1 cDNA (757-bp) was obtained by PCR from a U-105 human glioblastoma cell line cDNA library and was ligated into the EcoRI/HindIII site of the pBluescript (Stratagene, La Jolla, Calif.). The sense primer was 5′-[…]-3′ (SEQ ID NO: 2; corresponding to residues between 68 and 87 in the nucleotide sequence of the trkE cDNA, GenBank accession number X74979) and the antisense primer was 5′-[…]-3′ (SEQ ID NO: 3; corresponding to residues between 805 and 824 in the nucleotide sequence of the trkE cDNA).
Freshly isolated PBMC expressed only a low level of DDR1 mRNA. The expression level was increased about eightfold when the cells were incubated in either RPMI 1640 or RPMI 1640 containing 10% FCS.

Data on four molecules can be found in patent US7855076B2, “Use of discoidin domain receptor 1 (DDR1) and agents that affect the DDR1/collagen pathway” (The United States of America as represented by the …, priority 2002, dated 2010).

In the case of `C[C@@H]1C[C@@H]([C@H](O)CC2CC(=O)NC(=O)C2)C(=O)[C@@H](C)C1` [CHX, cycloheximide, reference compound], the “phosphorylation of p38 MAP kinase in response to collagen” value in the test with p38 MAP kinase is “completely inhibited”.
Regarding `COc1cccc(-c2cc(=O)c3ccccc3o2)c1N` [PD98059], the “expression of HLA-DR” value in the test with THP-1 cells [1] (collagen-activated PMA-treated DDR1b-overexpressing cells, 24 hours) was “no effect”. Besides, in the test with THP-1 cells [2], the “collagen-induced up-regulation of IL-1β release” value is “no effect”, the “collagen-induced up-regulation of IL-8 release” value is recorded as “no effect”, the “collagen-induced up-regulation of MCP-1 release” value is “no effect” and the “collagen-induced up-regulation of MIP-1α release” value was “no effect”.
Turning to `CCCCCCCCCCCCCC(=O)O[C@@H]1[C@@H](C)[C@@]2(O)[C@@H](C=C(CO)C[C@]3(O)C(=O)C(C)=C[C@@H]23)[C@@H]2C(C)(C)[C@]12OC(C)=O` [PMA, phorbol 12-myristate 13-acetate, reference compound], the HLA-DR-positive cells with THP-1 cells [1] (parental, mock, DDR1a- or DDR1b-overexpressing THP-1 cells, uncoated plates, 48 hours) is 26 to 28%.
On to IL-1β: human recombinant interleukin-1β, for which, in the test on DDR1 mRNA, the “level of DDR1 mRNA expression” value is listed as “further augmented”.
